Results: patent publication US8192962B2, “Processes for detecting toxic substances” (Daikin Industries, Ltd., priority 2001, dated 2012)

Test system: Stress protein genes
Assay: DNA chip mRNA expression in yeast, stress protein genes (Table 6)
Assay type: cell-based, Saccharomyces cerevisiae S288C
Outline: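 Whole-genome yeast DNA chip hybridization (65° C., >12 h) of Cy-labeled cDNA from S288C cells exposed 2 h at 25° C. to a sub-lethal toxicant dose in YPD; value is intensity relative to chemical-free control.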

## CCCCC[C@H](O)CC(=O)CCc1ccc(O)c(OC)c1 [(13), gingerol]
Yeast gene YAL015C
  The level of expressed mRNA in the presence of chemical substance/The level of expressed mRNA in the absence of chemical substance: 1.2
Yeast gene YBL093C
  The level of expressed mRNA in the presence of chemical substance/The level of expressed mRNA in the absence of chemical substance: 2.1
Yeast gene YBR044C
  The level of expressed mRNA in the presence of chemical substance/The level of expressed mRNA in the absence of chemical substance: 1.2
Yeast gene YBR054W
  The level of expressed mRNA in the presence of chemical substance/The level of expressed mRNA in the absence of chemical substance: 1.5
Yeast gene YBR067C
  The level of expressed mRNA in the presence of chemical substance/The level of expressed mRNA in the absence of chemical substance: 0.9
Yeast gene YBR126C
  The level of expressed mRNA in the presence of chemical substance/The level of expressed mRNA in the absence of chemical substance: 2.1
Yeast gene YCL035C
  The level of expressed mRNA in the presence of chemical substance/The level of expressed mRNA in the absence of chemical substance: 2.8
Yeast gene YCR021C
  The level of expressed mRNA in the presence of chemical substance/The level of expressed mRNA in the absence of chemical substance: 0.9
Yeast gene YCR083W
  The level of expressed mRNA in the presence of chemical substance/The level of expressed mRNA in the absence of chemical substance: 1.8
Yeast gene YDL022W
  The level of expressed mRNA in the presence of chemical substance/The level of expressed mRNA in the absence of chemical substance: 1.5
Yeast gene YDL025C
  The level of expressed mRNA in the presence of chemical substance/The level of expressed mRNA in the absence of chemical substance: 1.2
Yeast gene YDR033W
  The level of expressed mRNA in the presence of chemical substance/The level of expressed mRNA in the absence of chemical substance: 0.7
Yeast gene YDR077W
  The level of expressed mRNA in the presence of chemical substance/The level of expressed mRNA in the absence of chemical substance: 1.0
Yeast gene YDR098C
  The level of expressed mRNA in the presence of chemical substance/The level of expressed mRNA in the absence of chemical substance: 1.2
Yeast gene YDR155C
  The level of expressed mRNA in the presence of chemical substance/The level of expressed mRNA in the absence of chemical substance: 3.3
Yeast gene YDR293C
  The level of expressed mRNA in the presence of chemical substance/The level of expressed mRNA in the absence of chemical substance: 2.3
Yeast gene YDR513W
  The level of expressed mRNA in the presence of chemical substance/The level of expressed mRNA in the absence of chemical substance: 1.8
Yeast gene YDR519W
  The level of expressed mRNA in the presence of chemical substance/The level of expressed mRNA in the absence of chemical substance: 2.5
Yeast gene YEL039C
  The level of expressed mRNA in the presence of chemical substance/The level of expressed mRNA in the absence of chemical substance: 0.5
Yeast gene YER042W
  The level of expressed mRNA in the presence of chemical substance/The level of expressed mRNA in the absence of chemical substance: 1.4
Yeast gene YER057C
  The level of expressed mRNA in the presence of chemical substance/The level of expressed mRNA in the absence of chemical substance: 1.0
Yeast gene YER125W
  The level of expressed mRNA in the presence of chemical substance/The level of expressed mRNA in the absence of chemical substance: 1.9
Yeast gene YFL014W
  The level of expressed mRNA in the presence of chemical substance/The level of expressed mRNA in the absence of chemical substance: 15.2
Yeast gene YFL016C
  The level of expressed mRNA in the presence of chemical substance/The level of expressed mRNA in the absence of chemical substance: 2.8
Yeast gene YFL020C
  The level of expressed mRNA in the presence of chemical substance/The level of expressed mRNA in the absence of chemical substance: 1.4
Yeast gene YFR052W
  The level of expressed mRNA in the presence of chemical substance/The level of expressed mRNA in the absence of chemical substance: 3.8
Yeast gene YGL073W
  The level of expressed mRNA in the presence of chemical substance/The level of expressed mRNA in the absence of chemical substance: 1.5
Yeast gene YGL115W
  The level of expressed mRNA in the presence of chemical substance/The level of expressed mRNA in the absence of chemical substance: 0.7
Yeast gene YGR088W
  The level of expressed mRNA in the presence of chemical substance/The level of expressed mRNA in the absence of chemical substance: 1.2
Yeast gene YHL028W
  The level of expressed mRNA in the presence of chemical substance/The level of expressed mRNA in the absence of chemical substance: 2.1
Yeast gene YHL046C
  The level of expressed mRNA in the presence of chemical substance/The level of expressed mRNA in the absence of chemical substance: 1.4
Yeast gene YHR030C
  The level of expressed mRNA in the presence of chemical substance/The level of expressed mRNA in the absence of chemical substance: 1.0
Yeast gene YHR057C
  The level of expressed mRNA in the presence of chemical substance/The level of expressed mRNA in the absence of chemical substance: 1.9
Yeast gene YHR104W
  The level of expressed mRNA in the presence of chemical substance/The level of expressed mRNA in the absence of chemical substance: 1.2
Yeast gene YIL011W
  The level of expressed mRNA in the presence of chemical substance/The level of expressed mRNA in the absence of chemical substance: 0.5
Yeast gene YIL033C
  The level of expressed mRNA in the presence of chemical substance/The level of expressed mRNA in the absence of chemical substance: 2.5
Yeast gene YIR037W
  The level of expressed mRNA in the presence of chemical substance/The level of expressed mRNA in the absence of chemical substance: 2.4
Yeast gene YIR038C
  The level of expressed mRNA in the presence of chemical substance/The level of expressed mRNA in the absence of chemical substance: 2.5
Yeast gene YJL128C
  The level of expressed mRNA in the presence of chemical substance/The level of expressed mRNA in the absence of chemical substance: 1.7
Yeast gene YJL159W
  The level of expressed mRNA in the presence of chemical substance/The level of expressed mRNA in the absence of chemical substance: 1.7
Yeast gene YJL165C
  The level of expressed mRNA in the presence of chemical substance/The level of expressed mRNA in the absence of chemical substance: 1.5
Yeast gene YJR045C
  The level of expressed mRNA in the presence of chemical substance/The level of expressed mRNA in the absence of chemical substance: 2.3
Yeast gene YJR090C
  The level of expressed mRNA in the presence of chemical substance/The level of expressed mRNA in the absence of chemical substance: 2.2
Yeast gene YKL161C
  The level of expressed mRNA in the presence of chemical substance/The level of expressed mRNA in the absence of chemical substance: 1.3
Yeast gene YKL163W
  The level of expressed mRNA in the presence of chemical substance/The level of expressed mRNA in the absence of chemical substance: 1.5
Yeast gene YKL164C
  The level of expressed mRNA in the presence of chemical substance/The level of expressed mRNA in the absence of chemical substance: 0.9
Yeast gene YKL210W
  The level of expressed mRNA in the presence of chemical substance/The level of expressed mRNA in the absence of chemical substance: 2.9
Yeast gene YKR053C
  The level of expressed mRNA in the presence of chemical substance/The level of expressed mRNA in the absence of chemical substance: 0.7
Yeast gene YLL039C
  The level of expressed mRNA in the presence of chemical substance/The level of expressed mRNA in the absence of chemical substance: 2.2
Yeast gene YLL060C
  The level of expressed mRNA in the presence of chemical substance/The level of expressed mRNA in the absence of chemical substance: 1.8
Yeast gene YLR006C
  The level of expressed mRNA in the presence of chemical substance/The level of expressed mRNA in the absence of chemical substance: 0.8
Yeast gene YLR109W
  The level of expressed mRNA in the presence of chemical substance/The level of expressed mRNA in the absence of chemical substance: 3.2
Yeast gene YLR259C
  The level of expressed mRNA in the presence of chemical substance/The level of expressed mRNA in the absence of chemical substance: 2.5
Yeast gene YML007W
  The level of expressed mRNA in the presence of chemical substance/The level of expressed mRNA in the absence of chemical substance: 1.7
Yeast gene YMR021C
  The level of expressed mRNA in the presence of chemical substance/The level of expressed mRNA in the absence of chemical substance: 1.4
Yeast gene YMR173W
  The level of expressed mRNA in the presence of chemical substance/The level of expressed mRNA in the absence of chemical substance: 2.0
Yeast gene YMR186W
  The level of expressed mRNA in the presence of chemical substance/The level of expressed mRNA in the absence of chemical substance: 2.4
Yeast gene YNL064C
  The level of expressed mRNA in the presence of chemical substance/The level of expressed mRNA in the absence of chemical substance: 1.1
Yeast gene YNR076W
  The level of expressed mRNA in the presence of chemical substance/The level of expressed mRNA in the absence of chemical substance: 0.9
Yeast gene YOL064C
  The level of expressed mRNA in the presence of chemical substance/The level of expressed mRNA in the absence of chemical substance: 2.0
Yeast gene YOL161C
  The level of expressed mRNA in the presence of chemical substance/The level of expressed mRNA in the absence of chemical substance: 1.2
Yeast gene YOR008C
  The level of expressed mRNA in the presence of chemical substance/The level of expressed mRNA in the absence of chemical substance: 0.9
Yeast gene YOR010C
  The level of expressed mRNA in the presence of chemical substance/The level of expressed mRNA in the absence of chemical substance: 0.5
Yeast gene YOR027W
  The level of expressed mRNA in the presence of chemical substance/The level of expressed mRNA in the absence of chemical substance: 5.1
Yeast gene YOR208W
  The level of expressed mRNA in the presence of chemical substance/The level of expressed mRNA in the absence of chemical substance: 1.5
Yeast gene YPL059W
  The level of expressed mRNA in the presence of chemical substance/The level of expressed mRNA in the absence of chemical substance: 0.7
Yeast gene YPL106C
  The level of expressed mRNA in the presence of chemical substance/The level of expressed mRNA in the absence of chemical substance: 3.1
Yeast gene YPL140C
  The level of expressed mRNA in the presence of chemical substance/The level of expressed mRNA in the absence of chemical substance: 0.9
Yeast gene YPL194W
  The level of expressed mRNA in the presence of chemical substance/The level of expressed mRNA in the absence of chemical substance: 1.4
Yeast gene YPL223C
  The level of expressed mRNA in the presence of chemical substance/The level of expressed mRNA in the absence of chemical substance: 2.3
Yeast gene YPL240C
  The level of expressed mRNA in the presence of chemical substance/The level of expressed mRNA in the absence of chemical substance: 2.9
Yeast gene YPR005C
  The level of expressed mRNA in the presence of chemical substance/The level of expressed mRNA in the absence of chemical substance: 0.7
Yeast gene YPR026W
  The level of expressed mRNA in the presence of chemical substance/The level of expressed mRNA in the absence of chemical substance: 2.3
